Data reported in patent US20090270435A1 (priority 2006, published 2009).
Structures can show the parent of a compound that is named as a salt.

Each compound was assayed against T1, ACC1 from rat liver (Rattus norvegicus, UniProt P11497) (assay: Direct inhibition of ACC1 activity (14C-bicarbonate incorporation)). Conditions: ACC1 from rat liver.
T1 construct: The livers (for ACC1 preparation) or skeletal muscle tissue (for ACC2 preparation) are removed; from tissue; host or cells: liver of male CD rats (fasted, then fed a high sucrose diet)
Type: biochemical
Description: [1] Preparation of ACC1 and ACC2.
Male CD rats weighing 150-200 g are fasted for 2 days and then fed a high sucrose diet (AIN-76A rodent diet; Cat # D10001, Research Diets Inc., New Brunswick, N.J.), for 3 days at which time they are sacrificed by CO2 asphyxiation. The livers (for ACC1 preparation) or skeletal muscle tissue (for ACC2 preparation) are removed, rinsed in ice-cold phosphate-buffered saline (PBS), and homogenized in 5 volumes of homogenization buffer (50 mM potassium phosphate, pH 7.5, 10 mM EDTA, 10 mM 2-mercaptoethanol, 2 mM benzamidine, 0.2 mM phenylmethylsulfonylfluoride (PMSF), 5 mg/L each leupeptin, aprotinin, and antitrypsin) in a Waring® blender for 1 minute at 4° C. All subsequent operations are carried out at 4° C. The homogenate is made 3% with respect to polyethylene glycol (PEG) by the addition of 50% PEG solution and centrifuged at 20,000×g for 15 minutes. The resulting supernatant is adjusted to 5% PEG with the addition of 50% PEG solution and stirred for 5 minutes. The pellet (contains ACC activity) is collected by centrifugation at 20,000×g for 20 minutes, rinsed with Ice-cold doubly distilled water to remove excess PEG and re-suspended in one-fourth the original homogenate volume with homogenization buffer. Ammonium sulfate (200 g/liter) is slowly added with stirring. After 45 minutes the enzyme is collected by centrifugation for 30 minutes at 20,000×g, re-suspended in 10 ml of 50 mM HEPES, pH7.5, 0.1 mM DTT, 1.0 mM EDTA, and 10% glycerol and desalted on a Sephadex™ G-25 column (2.5 cm-x 50 cm) (Pharmacia, Piscataway N.J. now GE Healthcare) […] equilibrated with the same buffer. The desalted enzyme preparation is stored in aliquots at −70° C. Immediately prior to use, frozen ACC1 or ACC2 aliquots are thawed, diluted to 500 μg/ml in buffer containing 50 mM HEPES, pH7.5, 1.0 mM MgCl2, 10 mM tripotassium citrate, 2.0 mM dithiothreitol (DTT), and 0.75 mg/ml fatty acid-free bovine serum albumin (BSA) and pre-incubated at 37° C. for 30 minutes.
[2] Measurement of ACC inhibition. The procedures for measuring ACC1 inhibition and ACC2 inhibition are identical except for the source of the isozyme. For measurement of ACC activity and assessment of ACC inhibition, test compounds are dissolved in dimethylsulfoxide (DMSO) and 1 μL aliquots are placed in 0.5 ml polypropylene tubes. Control tubes contain 1 μL of DMSO alone. Tubes are incubated at 37° C. in a constant temperature water bath. […] The reaction is then initiated by the addition of 10 μL of preincubated ACC fraction prepared as described above. After 7 minutes the reaction is terminated by the addition of 50 μL of 6N HCl and a 150 μL aliquot of the reaction mixture is transferred to glass scintillation vials and evaporated to dryness at 90° C. for at least 1 hour. The dried vials are then cooled, 0.5 ml of water and 5.5 ml of Ready Safe liquid scintillation fluid (Beckman Coulter Inc., Fullerton, Calif.) are added, and the radioactivity is determined using a liquid scintillation counter. Tubes that received HCl before ACC served as blanks.

Compound	IC50 [nM]
Cc1cc2c(cc1Cl)OC1(CCN(C(=O)c3cccc4cn[nH]c34)CC1)CC2=O [Ex. H2, 7-chloro-1′-(1H-indazol-7-ylcarbonyl)-6-methylspiro[chromene-2,4′-piperidin]-4(3H)-one]	226
Cc1cc2c(cc1Br)C(=O)CC1(CCN(C(=O)c3cccc4cn[nH]c34)CC1)O2 [Ex. H3, 6-bromo-1′-(1H-indazol-7-ylcarbonyl)-7-methylspiro[chromene-2,4′-piperidin]-4(3H)-one]	264
COc1cc(C)cc2c1C(=O)CC1(CCN(C(=O)c3cccc4cn[nH]c34)CC1)O2 [Ex. H4, 1′-(1H-indazol-7-ylcarbonyl)-5-methoxy-7-methylspiro[chromene-2,4′-piperidin]-4(3H)-one]	279
Cc1cc2c(cc1Cl)C(=O)CC1(CCN(C(=O)c3cccc4cn[nH]c34)CC1)O2 [Ex. H5, 6-chloro-1′-(1H-indazol-7-ylcarbonyl)-7-methylspiro[chromene-2,4′-piperidin]-4(3H)-one]	321
COc1ccc2c(c1F)C(=O)CC1(CCN(C(=O)c3cccc4cn[nH]c34)CC1)O2 [Ex. H6, 5-fluoro-1′-(1H-indazol-7-ylcarbonyl)-6-methoxyspiro[chromene-2,4′-piperidin]-4(3H)-one]	381
COc1ccc2c(c1)C(=O)CC1(CCN(C(=O)c3cccc4cn[nH]c34)CC1)O2 [Ex. H7]	562
Cc1cc2c(c(C)c1Cl)C(=O)CC1(CCN(C(=O)c3cccc4cn[nH]c34)CC1)O2 [Ex. H8, 6-chloro-1′-(1H-indazol-7-ylcarbonyl)-5,7-dimethylspiro[chromene-2,4′-piperidin]-4(3H)-one]	590
CC(C)c1ccc2c(c1)C(=O)CC1(CCN(C(=O)c3cccc4cn[nH]c34)CC1)O2 [Ex. H10, 1′-(1H-indazol-7-ylcarbonyl)-6-isopropylspiro[chromene-2,4-piperidin]-4(3H)-one]	693
COc1cc2c(c(OC)c1OC)C(=O)CC1(CCN(C(=O)c3cccc4cn[nH]c34)CC1)O2 [Ex. H11, 1′-(1H-indazol-7-ylcarbonyl)-5,6,7-trimethoxyspiro[chromene-2,4′-piperidin]-4(3H)-one]	756
Cc1ccc2c(c1)OC1(CCN(C(=O)c3cccc4cn[nH]c34)CC1)CC2=O [Ex. H12, 1′-(1H-indazol-7-ylcarbonyl)-7-methylspiro[chromene-2,4-piperidin]4(3H)-one]	850
Cc1cc(C)c2c(c1)C(=O)CC1(CCN(C(=O)c3cccc4cn[nH]c34)CC1)O2 [Ex. H13, 1′-(1H-indazol-7-ylcarbonyl)-6,8-dimethylspiro[chromen-2,4′-piperidin]-4(3H)-one]	1320
O=C1CC2(CCN(C(=O)c3cccc4cn[nH]c34)CC2)Oc2ccc(Cl)cc21 [Ex. H14, 6-chloro-1′-(1H-indazol-7-ylcarbonyl)spiro[chromene-2,4′-piperidin]-4(3H)-one]	1390
COc1cccc2c1C(=O)CC1(CCN(C(=O)c3cccc4cn[nH]c34)CC1)O2 [Ex. H16]	1620
COc1c(Cl)ccc2c1C(=O)CC1(CCN(C(=O)c3cccc4cn[nH]c34)CC1)O2 [Ex. H17, 6-chloro-1′-(1H-indazol-7-ylcarbonyl)-5-methoxyspiro[chromene-2,4′-piperidin]-4(3H)-one]	1830
O=C1CC2(CCN(C(=O)c3cccc4cn[nH]c34)CC2)Oc2cc(-c3ccccc3)ccc21 [Ex. H18, 1′-(1H-indazol-7-ylcarbonyl)-7-phenylspiro[chromene-2,4′-piperidin]-4(3H)-one]	2210
O=C1CC2(CCN(C(=O)c3cccc4cn[nH]c34)CC2)Oc2cc(F)ccc21 [Ex. H19, 7-fluoro-1′-(1H-indazol-7-ylcarbonyl)spiro[chromene-2,4′-piperidin]-4(3H)-one]	2350

Compound	IC50 [nM]
COc1cccc2c1C(=O)CC1(CCN(C(=O)c3cccc4cn[nH]c34)CC1)O2 [Ex. H20, 1′-(1H-indazol-7-ylcarbonyl)-5-methoxyspiro[chromene-2,4′-piperidin]-4(3H)-one]	2430
COc1ccc2c(c1)OC1(CCN(C(=O)c3cccc4cn[nH]c34)CC1)CC2=O [Ex. H21]	2530
O=C1CC2(CCN(C(=O)c3cccc4cn[nH]c34)CC2)Oc2c(Cl)cc(Cl)cc21 [Ex. H22, 6,8-dichloro-1′-(1H-indazol-7-ylcarbonyl)spiro[chromene-2,4′-piperidin]-4(3H)-one]	2660
Cc1cc2c(cc1Cl)C(=O)CC1(CCN(C(=O)c3cc(Br)cc4cn[nH]c34)CC1)O2 [Ex. J1, 1′-[(5-bromo-1H-indazol-7-yl)carbonyl]-6-chloro-7-methylspiro[chromene-2,4′-piperidin]-4(3H)-one]	345
Cc1cc2c(cc1Cl)C(=O)CC1(CCN(C(=O)c3cccc4[nH]ncc34)CC1)O2 [Ex. J2, 6-chloro-1′-(1H-indazol-4-ylcarbonyl)-7-methylspiro[chromene-2,4′-piperidin]-4(3H)-one]	375
Cc1cc2c(cc1C)C(=O)CC1(CCN(C(=O)c3ccc4nn(C)cc4c3)CC1)O2 [Ex. J3, 6,7-dimethyl-1′-[(2-methyl-2H-indazolyl)carbonyl]spiro[chromene-2,4-piperidin]-4(3H)-one]	353
Cc1cc2c(cc1C)C(=O)CC1(CCN(C(=O)c3ccc4[nH]c5c(c4c3)CCNC5=O)CC1)O2 [Ex. K1, 6,7-dimethyl-1′-[(1-oxo-2,3,4,9-tetrahydro-1H-beta-carbolin-6-yl)carbonyl]spiro[chromene-2,4′-piperidin]-4(3H)-one]	9.98
COc1cccc2c1C(=O)CC1(CCN(C(=O)c3ccc4[nH]c5c(c4c3)CCNC5=O)CC1)O2 [Ex. K2, 5-methoxy-1′-[(1-oxo-2,3,4,9-tetrahydro-1H-beta-carbolin-6-yl)carbonyl]spiro[chromene-2,4′-piperidin]-4(3H)-one]	28.8
O=C1CC2(CCN(C(=O)c3ccc4[nH]c5c(c4c3)CCNC5=O)CC2)Oc2ccc(Cl)cc21 [Ex. K3, 6-chloro-1′-[(1-oxo-2,3,4,9-tetrahydro-1H-beta-carbolin-6-yl)carbonyl]spiro[chromene-2,4′-piperidin]-4(3H)-one]	106
Cc1cc2c(cc1C)C(=O)CC1(CCN(C(=O)c3cccc4cc[nH]c34)CC1)O2 [Ex. L1, 1′-(1H-indol-7-ylcarbonyl)-6,7-dimethylspiro[chromene-2,4′-piperidin]-4(3H)-one trifluoroacetic acid salt]	190
Cc1cc2c(cc1C)C(=O)CC1(CCN(C(=O)c3ccc4cc[nH]c4c3)CC1)O2 [Ex. L2, 1′-(1H-indol-6-ylcarbonyl)-6,7-dimethylspiro[chromene-2,4′-piperidin]-4(3H)-one trifluoroacetic acid salt]	155
Cc1cc2ccc(C(=O)N3CCC4(CC3)CC(=O)c3cc(C)c(C)cc3O4)cc2[nH]1 [Ex. L3, 6,7-dimethyl-1′-[(2-methyl-1H-indol-6-yl)carbonyl]spiro[chromene-2,4′-piperidin]-4(3H)-one trifluoroacetic acid salt]	368
Cc1cc2c(cc1C)C(=O)CC1(CCN(C(=O)c3ccc4ccn(C)c4c3)CC1)O2 [Ex. L4, 6,7-dimethyl-1′-[(1-methyl-1H-indol-6-yl)carbonyl]spiro[chromene-2,4′-piperidin]-4(3H)-one]	83.3
Cn1ccc2ccc(C(=O)N3CCC4(CC3)CC(=O)c3cc(Cl)ccc3O4)cc21 [Ex. L5, 6-chloro-1′-[(1-methyl-1H-indol-6-yl)carbonyl]spiro[chromene-2,4′-piperidin]-4(3H)-one]	< 1000
COc1cccc2c1C(=O)CC1(CCN(C(=O)c3ccc4c(Cl)c[nH]c4c3)CC1)O2 [Ex. L6, 1′-[(3-chloro-1H-indol-6-yl)carbonyl]-5-methoxyspiro[chromene-2,4′-piperidin]-4(3H)-one]	47.3
